Source: ChEMBL document CHEMBL2417377, “Hit-to-lead optimization and kinase selectivity of imidazo[1,2-a]quinoxalin-4-amine derived JNK1 inhibitors” (Bioorg Med Chem Lett, 2013)

Columns and labels:
Details in all cases: PC-3
[1] = target: Microtubule-associated serine/threonine-protein kinase 3 (Homo sapiens, UniProt O60307); assay: Inhibition of MAST3 in human PC3 cell lysates at 10 uM using desthiobiotin-tagged ATP probe AX9989 followed by trypsinization by LC/MS analysis
[2] = target: Serine/threonine-protein kinase Nek7 (Homo sapiens) (UniProt Q8TDX7); assay: Inhibition of NEK7 in human PC3 cell lysates at 10 uM using desthiobiotin-tagged ATP probe AX9989 followed by trypsinization by LC/MS analysis
Chain of Serine/threonine-protein kinase Nek7 (Homo sapiens) (Q8TDX7 whole entry, looked up): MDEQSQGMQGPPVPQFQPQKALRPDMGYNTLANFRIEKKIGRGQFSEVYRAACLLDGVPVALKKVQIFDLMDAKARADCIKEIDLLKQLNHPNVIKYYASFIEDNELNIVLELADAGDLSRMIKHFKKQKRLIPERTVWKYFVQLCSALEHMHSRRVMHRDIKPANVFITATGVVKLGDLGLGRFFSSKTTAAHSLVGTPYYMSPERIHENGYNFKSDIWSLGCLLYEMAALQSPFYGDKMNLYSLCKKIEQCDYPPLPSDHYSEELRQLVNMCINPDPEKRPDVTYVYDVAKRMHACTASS

[3] = target: Calcium/calmodulin-dependent protein kinase type II subunit gamma (Homo sapiens) (UniProt Q13555); assay: Inhibition of CaMK2gamma in human PC3 cell lysates at 10 uM using desthiobiotin-tagged ATP probe AX9989 followed by trypsinization by LC/MS analysis
Chain of Calcium/calmodulin-dependent protein kinase type II subunit gamma (Homo sapiens) (Q13555 whole entry): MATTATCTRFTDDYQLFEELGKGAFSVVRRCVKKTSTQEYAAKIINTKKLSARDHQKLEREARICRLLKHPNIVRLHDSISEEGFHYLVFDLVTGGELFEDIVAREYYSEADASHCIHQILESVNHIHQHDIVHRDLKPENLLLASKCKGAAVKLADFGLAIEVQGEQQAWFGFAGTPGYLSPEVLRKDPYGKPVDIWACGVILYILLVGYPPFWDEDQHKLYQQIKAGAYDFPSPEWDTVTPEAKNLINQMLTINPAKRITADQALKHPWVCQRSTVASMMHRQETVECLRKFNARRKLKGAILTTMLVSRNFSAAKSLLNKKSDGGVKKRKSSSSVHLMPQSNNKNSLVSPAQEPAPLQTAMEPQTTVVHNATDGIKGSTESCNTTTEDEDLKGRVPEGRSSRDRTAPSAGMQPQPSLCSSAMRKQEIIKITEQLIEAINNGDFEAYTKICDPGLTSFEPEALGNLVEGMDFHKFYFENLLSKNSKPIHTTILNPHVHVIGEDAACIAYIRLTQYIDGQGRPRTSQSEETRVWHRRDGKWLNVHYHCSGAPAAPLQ

[4] = target: Cyclin-dependent kinase 14 (Homo sapiens) (UniProt O94921); assay: Inhibition of PFTAIRE1 in human PC3 cell lysates at 10 uM using desthiobiotin-tagged ATP probe AX9989 followed by trypsinization by LC/MS analysis
Chain of Cyclin-dependent kinase 14 (Homo sapiens) (O94921 whole entry): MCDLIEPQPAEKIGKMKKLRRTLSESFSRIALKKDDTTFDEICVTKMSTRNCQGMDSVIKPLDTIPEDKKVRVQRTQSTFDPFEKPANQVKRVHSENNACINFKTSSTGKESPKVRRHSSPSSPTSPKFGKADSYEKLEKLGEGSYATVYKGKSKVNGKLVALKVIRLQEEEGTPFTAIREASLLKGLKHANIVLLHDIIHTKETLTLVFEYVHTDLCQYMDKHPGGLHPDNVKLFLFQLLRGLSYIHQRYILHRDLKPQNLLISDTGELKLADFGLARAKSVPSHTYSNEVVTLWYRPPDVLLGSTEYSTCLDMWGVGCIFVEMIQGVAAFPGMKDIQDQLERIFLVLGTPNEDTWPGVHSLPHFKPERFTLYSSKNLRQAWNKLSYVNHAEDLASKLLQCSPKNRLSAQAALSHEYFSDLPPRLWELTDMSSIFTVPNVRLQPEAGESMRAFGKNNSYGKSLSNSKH

[5] = target: Mitogen-activated protein kinase kinase kinase 20 (Homo sapiens) (UniProt Q9NYL2); assay: Inhibition of ZAK in human PC3 cell lysates at 10 uM using desthiobiotin-tagged ATP probe AX9989 followed by trypsinization by LC/MS analysis
Chain of Mitogen-activated protein kinase kinase kinase 20 (Homo sapiens) (Q9NYL2 2-800 limits assumed): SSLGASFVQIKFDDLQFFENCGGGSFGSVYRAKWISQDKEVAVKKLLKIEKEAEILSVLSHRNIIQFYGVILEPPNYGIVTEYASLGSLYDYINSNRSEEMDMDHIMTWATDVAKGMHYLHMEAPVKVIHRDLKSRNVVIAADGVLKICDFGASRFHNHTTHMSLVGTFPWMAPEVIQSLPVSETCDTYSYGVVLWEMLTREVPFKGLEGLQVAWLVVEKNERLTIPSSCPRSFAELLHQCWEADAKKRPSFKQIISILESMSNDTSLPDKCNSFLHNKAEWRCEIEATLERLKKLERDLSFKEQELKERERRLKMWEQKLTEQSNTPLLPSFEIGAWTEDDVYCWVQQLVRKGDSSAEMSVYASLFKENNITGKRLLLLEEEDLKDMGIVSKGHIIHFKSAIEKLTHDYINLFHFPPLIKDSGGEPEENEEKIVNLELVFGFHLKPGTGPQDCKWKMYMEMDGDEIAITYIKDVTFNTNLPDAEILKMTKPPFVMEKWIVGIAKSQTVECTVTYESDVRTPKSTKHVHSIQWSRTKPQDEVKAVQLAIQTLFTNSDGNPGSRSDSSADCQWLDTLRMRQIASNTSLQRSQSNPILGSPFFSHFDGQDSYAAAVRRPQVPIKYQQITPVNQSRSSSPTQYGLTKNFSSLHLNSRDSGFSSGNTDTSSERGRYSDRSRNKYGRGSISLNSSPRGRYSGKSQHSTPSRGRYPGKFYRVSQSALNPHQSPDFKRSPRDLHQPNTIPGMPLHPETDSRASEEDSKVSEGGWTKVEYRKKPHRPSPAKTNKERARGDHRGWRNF

[6] = target: Dual specificity protein kinase CLK2 (Homo sapiens) (UniProt P49760); assay: Inhibition of CLK2 in human PC3 cell lysates at 10 uM using desthiobiotin-tagged ATP probe AX9989 followed by trypsinization by LC/MS analysis
Chain of Dual specificity protein kinase CLK2 (Homo sapiens) (P49760 whole entry, looked up): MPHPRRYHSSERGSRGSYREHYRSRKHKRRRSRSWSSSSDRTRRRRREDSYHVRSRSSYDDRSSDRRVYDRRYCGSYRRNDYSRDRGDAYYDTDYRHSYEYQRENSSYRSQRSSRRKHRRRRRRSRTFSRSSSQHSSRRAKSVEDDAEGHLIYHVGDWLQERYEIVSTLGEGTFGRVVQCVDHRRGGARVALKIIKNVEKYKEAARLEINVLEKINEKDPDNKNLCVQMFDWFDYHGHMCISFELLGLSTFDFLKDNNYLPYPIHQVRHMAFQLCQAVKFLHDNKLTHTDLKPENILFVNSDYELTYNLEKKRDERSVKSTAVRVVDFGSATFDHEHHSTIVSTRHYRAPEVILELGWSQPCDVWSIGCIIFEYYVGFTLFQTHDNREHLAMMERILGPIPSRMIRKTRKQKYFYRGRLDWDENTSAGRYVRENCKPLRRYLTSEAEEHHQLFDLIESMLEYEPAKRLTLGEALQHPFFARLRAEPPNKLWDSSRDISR

[7] = target: T1, Serine/threonine-protein kinase TAO2 (Homo sapiens) (UniProt Q9UL54); assay: Inhibition of TAO2 in human PC3 cell lysates at 10 uM using desthiobiotin-tagged ATP probe AX9989 followed by trypsinization by LC/MS analysis
T1 sequence (whole entry): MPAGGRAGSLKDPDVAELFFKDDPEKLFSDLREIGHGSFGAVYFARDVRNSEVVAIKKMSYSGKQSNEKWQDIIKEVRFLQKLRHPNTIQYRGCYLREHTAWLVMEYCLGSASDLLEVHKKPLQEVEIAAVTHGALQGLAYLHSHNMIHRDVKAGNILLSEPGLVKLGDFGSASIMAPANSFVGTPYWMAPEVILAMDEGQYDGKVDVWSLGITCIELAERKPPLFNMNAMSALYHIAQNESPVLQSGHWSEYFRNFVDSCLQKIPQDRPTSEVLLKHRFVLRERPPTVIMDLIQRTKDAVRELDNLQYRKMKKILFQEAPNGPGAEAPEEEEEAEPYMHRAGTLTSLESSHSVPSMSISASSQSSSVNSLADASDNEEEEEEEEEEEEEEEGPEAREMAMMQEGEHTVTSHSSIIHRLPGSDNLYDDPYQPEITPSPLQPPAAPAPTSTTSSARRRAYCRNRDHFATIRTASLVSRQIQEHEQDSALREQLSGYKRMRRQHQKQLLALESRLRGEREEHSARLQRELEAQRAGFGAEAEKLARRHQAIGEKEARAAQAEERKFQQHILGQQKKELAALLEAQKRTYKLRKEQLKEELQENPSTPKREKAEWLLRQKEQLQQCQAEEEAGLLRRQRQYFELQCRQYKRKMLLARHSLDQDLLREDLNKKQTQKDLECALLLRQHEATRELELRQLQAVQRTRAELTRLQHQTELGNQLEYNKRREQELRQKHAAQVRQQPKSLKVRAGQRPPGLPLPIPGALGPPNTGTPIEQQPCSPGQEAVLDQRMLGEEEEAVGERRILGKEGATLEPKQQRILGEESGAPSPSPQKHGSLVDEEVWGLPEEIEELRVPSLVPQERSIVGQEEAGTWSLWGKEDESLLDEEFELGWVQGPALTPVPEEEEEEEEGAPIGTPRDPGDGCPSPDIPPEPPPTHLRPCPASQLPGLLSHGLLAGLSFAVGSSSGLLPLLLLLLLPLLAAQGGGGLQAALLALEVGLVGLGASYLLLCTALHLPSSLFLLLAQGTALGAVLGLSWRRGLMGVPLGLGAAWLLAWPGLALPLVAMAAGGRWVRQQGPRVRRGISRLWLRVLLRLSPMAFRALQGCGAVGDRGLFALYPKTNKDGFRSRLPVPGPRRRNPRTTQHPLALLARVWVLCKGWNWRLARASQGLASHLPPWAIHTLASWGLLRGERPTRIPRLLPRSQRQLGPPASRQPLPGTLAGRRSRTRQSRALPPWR

[8] = target: Serine/threonine-protein kinase ATR (Homo sapiens) (UniProt Q13535); assay: Inhibition of ATR in human PC3 cell lysates at 10 uM using desthiobiotin-tagged ATP probe AX9989 followed by trypsinization by LC/MS analysis
[9] = target: Serine/threonine-protein kinase tousled-like 2 (Homo sapiens) (UniProt Q86UE8); assay: Inhibition of TLK2 in human PC3 cell lysates at 10 uM using desthiobiotin-tagged ATP probe AX9989 followed by trypsinization by LC/MS analysis
[10] = target: Cyclin-dependent kinase 11B (Homo sapiens) (UniProt P21127); assay: Inhibition of CDK11 in human PC3 cell lysates at 10 uM using desthiobiotin-tagged ATP probe AX9989 followed by trypsinization by LC/MS analysis
Chain of Cyclin-dependent kinase 11B (Homo sapiens) (P21127 whole entry): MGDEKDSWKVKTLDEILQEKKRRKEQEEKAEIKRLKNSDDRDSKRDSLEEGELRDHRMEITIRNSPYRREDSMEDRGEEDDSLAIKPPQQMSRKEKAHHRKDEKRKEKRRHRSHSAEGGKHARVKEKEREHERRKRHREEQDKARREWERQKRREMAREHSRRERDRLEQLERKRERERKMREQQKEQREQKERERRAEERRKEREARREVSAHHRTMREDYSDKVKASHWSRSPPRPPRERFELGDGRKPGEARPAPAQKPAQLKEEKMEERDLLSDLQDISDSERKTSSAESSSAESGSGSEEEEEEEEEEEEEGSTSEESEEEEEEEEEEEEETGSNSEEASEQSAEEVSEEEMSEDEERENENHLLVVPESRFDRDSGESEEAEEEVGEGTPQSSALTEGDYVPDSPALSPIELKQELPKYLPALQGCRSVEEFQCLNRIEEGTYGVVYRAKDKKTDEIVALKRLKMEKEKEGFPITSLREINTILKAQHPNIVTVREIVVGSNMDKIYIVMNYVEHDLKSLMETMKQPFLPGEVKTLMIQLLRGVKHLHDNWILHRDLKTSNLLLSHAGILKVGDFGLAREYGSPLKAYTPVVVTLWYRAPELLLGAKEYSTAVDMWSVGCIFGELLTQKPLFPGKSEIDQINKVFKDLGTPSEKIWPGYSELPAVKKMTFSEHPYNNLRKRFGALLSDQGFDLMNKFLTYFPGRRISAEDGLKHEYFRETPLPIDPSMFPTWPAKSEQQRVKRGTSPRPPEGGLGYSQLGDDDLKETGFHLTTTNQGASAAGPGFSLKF

[11] = target: T2, Acylglycerol kinase, mitochondrial (Homo sapiens) (UniProt Q53H12); assay: Inhibition of AGK in human PC3 cell lysates at 10 uM using desthiobiotin-tagged ATP probe AX9989 followed by trypsinization by LC/MS analysis
T2 sequence (whole entry): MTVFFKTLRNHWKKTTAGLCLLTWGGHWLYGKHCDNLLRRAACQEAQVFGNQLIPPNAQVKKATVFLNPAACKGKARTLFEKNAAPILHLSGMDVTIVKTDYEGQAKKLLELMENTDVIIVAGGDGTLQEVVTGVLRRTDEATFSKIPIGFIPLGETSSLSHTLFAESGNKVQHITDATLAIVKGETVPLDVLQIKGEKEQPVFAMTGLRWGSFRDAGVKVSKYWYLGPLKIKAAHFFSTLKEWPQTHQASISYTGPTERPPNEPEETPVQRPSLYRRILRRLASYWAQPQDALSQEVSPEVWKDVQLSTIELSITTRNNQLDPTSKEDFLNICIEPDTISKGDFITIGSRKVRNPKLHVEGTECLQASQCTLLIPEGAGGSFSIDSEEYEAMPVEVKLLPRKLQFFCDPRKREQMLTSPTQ

Chain of Microtubule-associated serine/threonine-protein kinase 3 (O60307 whole entry): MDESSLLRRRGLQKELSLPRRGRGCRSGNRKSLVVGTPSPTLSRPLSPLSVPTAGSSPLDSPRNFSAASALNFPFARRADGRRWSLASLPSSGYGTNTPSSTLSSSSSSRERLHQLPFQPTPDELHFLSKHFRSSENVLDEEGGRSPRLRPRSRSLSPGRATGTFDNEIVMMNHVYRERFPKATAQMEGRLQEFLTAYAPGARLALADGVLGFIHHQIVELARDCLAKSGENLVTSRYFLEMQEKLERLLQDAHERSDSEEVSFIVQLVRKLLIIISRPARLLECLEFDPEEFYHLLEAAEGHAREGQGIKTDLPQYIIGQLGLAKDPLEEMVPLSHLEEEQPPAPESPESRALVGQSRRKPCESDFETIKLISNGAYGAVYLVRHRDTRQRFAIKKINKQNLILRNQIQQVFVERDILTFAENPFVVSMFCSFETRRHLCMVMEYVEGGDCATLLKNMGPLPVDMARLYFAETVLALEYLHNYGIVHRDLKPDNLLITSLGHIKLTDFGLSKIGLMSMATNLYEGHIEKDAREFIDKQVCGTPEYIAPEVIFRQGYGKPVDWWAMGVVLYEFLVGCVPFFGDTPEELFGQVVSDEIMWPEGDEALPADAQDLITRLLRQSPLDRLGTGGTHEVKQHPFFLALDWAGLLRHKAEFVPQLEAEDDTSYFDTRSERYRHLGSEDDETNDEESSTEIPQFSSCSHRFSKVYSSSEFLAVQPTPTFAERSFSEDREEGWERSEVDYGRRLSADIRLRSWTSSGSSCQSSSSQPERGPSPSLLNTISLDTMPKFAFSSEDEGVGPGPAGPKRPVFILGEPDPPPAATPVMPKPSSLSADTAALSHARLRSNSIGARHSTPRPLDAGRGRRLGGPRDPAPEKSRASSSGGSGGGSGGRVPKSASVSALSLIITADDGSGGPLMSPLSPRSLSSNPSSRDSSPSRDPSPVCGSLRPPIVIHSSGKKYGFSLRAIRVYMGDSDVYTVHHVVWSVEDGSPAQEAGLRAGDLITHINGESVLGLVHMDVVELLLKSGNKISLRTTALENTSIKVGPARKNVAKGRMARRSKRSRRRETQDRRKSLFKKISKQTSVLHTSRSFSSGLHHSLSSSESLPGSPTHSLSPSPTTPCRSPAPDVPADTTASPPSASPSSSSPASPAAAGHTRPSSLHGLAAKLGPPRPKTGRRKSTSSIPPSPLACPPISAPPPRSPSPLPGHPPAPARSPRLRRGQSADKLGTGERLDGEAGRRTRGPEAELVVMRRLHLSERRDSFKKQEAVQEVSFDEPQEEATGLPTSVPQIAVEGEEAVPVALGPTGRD

inhibition [1]	inhibition [2]	inhibition [3]	inhibition [4]	inhibition [5]	inhibition [6]	inhibition [7]	inhibition [8]	inhibition [9]	inhibition [10]	inhibition [11]	Structure (SMILES)
< 35%	< 35%	< 35%	< 35%	< 35%	< 35%	< 35%	< 35%	< 35%	< 35%	< 35%	NC(=O)c1ccc2nc(N[C@H]3CC[C@H](O)CC3)c3nccn3c2c1
< 35%	< 35%	< 35%	< 35%	< 35%	< 35%	< 35%	< 35%	< 35%	< 35%	< 35%	O=C(NC1(Cc2ccc(F)cc2)CC1)c1ccc2nc(N[C@H]3CC[C@H](O)CC3)c3nccn3c2c1
99.2%	< 35%	< 35%	< 35%	< 35%	< 35%	< 35%	< 35%	< 35%	< 35%	< 35%	O=C(NC1(c2ccccc2)CCC1)c1ccc2nc(N[C@H]3CC[C@H](O)CC3)c3nccn3c2c1
97%	< 35%	< 35%	< 35%	< 35%	< 35%	< 35%	< 35%	< 35%	< 35%	< 35%	C[C@@H](NC(=O)c1ccc2nc(N[C@H]3CC[C@H](O)CC3)c3nccn3c2c1)c1ccccc1
96.2%	< 35%	48.7%	< 35%	< 35%	< 35%	< 35%	< 35%	< 35%	< 35%	< 35%	CC[C@@H](NC(=O)c1ccc2nc(N[C@H]3CC[C@H](O)CC3)c3nccn3c2c1)c1ccccc1
76.3%	< 35%	< 35%	< 35%	< 35%	< 35%	< 35%	< 35%	< 35%	< 35%	< 35%	C[C@H](NC(=O)c1ccc2nc(N[C@H]3CC[C@H](O)CC3)c3nccn3c2c1)c1ccccc1
97.9%	< 35%	< 35%	< 35%	< 35%	< 35%	< 35%	< 35%	< 35%	< 35%	< 35%	O=C(N[C@H](CO)c1ccccc1)c1ccc2nc(N[C@H]3CC[C@H](O)CC3)c3nccn3c2c1
98.9%	< 35%	< 35%	< 35%	< 35%	< 35%	< 35%	< 35%	< 35%	< 35%	< 35%	O=C(NC1(c2ccccc2)CC1)c1ccc2nc(N[C@H]3CC[C@H](O)CC3)c3nccn3c2c1
90.2%	< 35%	< 35%	< 35%	< 35%	< 35%	< 35%	< 35%	< 35%	< 35%	< 35%	CCC[C@@H](NC(=O)c1ccc2nc(N[C@H]3CC[C@H](O)CC3)c3nccn3c2c1)c1ccccc1
99.3%	< 35%	< 35%	< 35%	< 35%	< 35%	< 35%	< 35%	< 35%	< 35%	< 35%	CC(C)(NC(=O)c1ccc2nc(N[C@H]3CC[C@H](O)CC3)c3nccn3c2c1)c1ccccc1
< 35%	< 35%	< 35%	80.1%	< 35%	< 35%	67%	< 35%	< 35%	< 35%	< 35%	O=C(O)c1ccc2nc(N[C@H]3CC[C@H](O)CC3)c3nccn3c2c1
97.6%	< 35%	< 35%	< 35%	< 35%	< 35%	< 35%	< 35%	< 35%	< 35%	< 35%	O=C(NC1(c2ccc(F)cc2)CC1)c1ccc2nc(N[C@H]3CC[C@H](O)CC3)c3nccn3c2c1
